{
  "source": "patent US7455861B2",
  "about": "“Angelicae sinensis extracts useful for treatment of cancers” (priority 2004, dated 2008)",
  "key": {"[1]": {"test_system": "HUVEC", "assay": "Tube formation of HUVEC", "type": "cell-based, human"}, "[2]": {"test_system": "ETS-1", "assay": "RT-PCR of ETS-1 in HUVEC", "type": "cell-based, human"}, "[3]": {"test_system": "RG2", "assay": "Cytotoxicity (IC50) on RG2", "type": "cell-based, rat", "settings": "for IC50: Table 1, value in parentheses; for Cytotoxicity, IC50 RG2: cancer cells, Table 1", "description": "(§1) Human tumor cell lines (MCF-7, CL1-5, HT-29, Caco-2), human umbilical vascular endothelial cells (HUVEC), and human dermal fibroblasts (HDF) were tested for sensitivity on Angelicae sinensis extracts, ligustilide, n-butylidenephthalide and its derivatives in vitro. The DBTRG-05MG, BCM, HL-60 and J5 cells were grown in RPMI-1640 medium containing 10% fetal calf serum and 100 ng/ml penicillin and […] streptomycin at 37° C. in a humidified atmosphere with 5% CO2. The G5T/VGH, RG2, Ni 8, SVEC and Balb/3T3 cells were cultured in DMEM with 10% fetal calf serum and 100 ng/ml penicillin and […] streptomycin at 37° C. in 5% CO2. Mycoplasma infection of the culture cells was excluded by PCR screening methods before each experiment.\n(§2) The effects on cell viability after the treatments with different concentrations of the Angelicae sinensis extracts or the active components purified therefrom were evaluated by modified MTT assay in triplicate. Briefly, the cells (5×10^3) were incubated into 96-well plates containing 100 μl of a growth medium. The cells were permitted to adhere for 24 hours, then treated with 100 μl of the herbal extracts or the active components dissolved in the medium. The control contained DMSO of <0.02% (v/v). After 24, 48 and 72 h incubation, the drug-containing medium was replaced by 50 μl of fresh medium, and cells in each well were incubated in 50 μl of 400 μg/ml MTT for 6-8 h. The medium and MTT were removed later and 100 μl of DMSO was added to each well and to the control, to dissolve the soluble components. Absorbance at 550 nm of the solutions was measured with MRX Microtiter Plate Luminometer (DYNEX, USA). The absorbance of untreated cells was considered as 100%. To evaluate the effects of the extracts or the active components on cell growth rate of GBM cells, 5×10^3 exponentially growing cells were treated with different concentrations for 24, 48, or 72 h. The cytotoxicity of each test substance was determined as an IC50 value, which represents the drug concentration required to cause 50% inhibition. All experiments in this study were performed in triplicate."}, "[4]": {"test_system": "MMP-2", "assay": "RT-PCR of MMP-2 in HUVEC", "type": "cell-based, human"}, "[5]": {"test_system": "HUVEC", "assay": "Cytotoxicity (IC50) on HUVEC", "type": "cell-based, human", "settings": "normal cells; for Cytotoxicity, IC50 HUVEC: Table 1; for IC50: Table 1, value in parentheses", "text": "(§3) Human umbilical vascular endothelial cells (HUVECs) were purchased from Cascade Biologics, Inc. (USA). HUVECs were maintained in Medium 200 (Cascade Biologics, Inc. USA) supplemented with 10% fetal bovine serum (FBS; Gibco BRL) and low serum growth supplement (LSGS; Cascade Biologics, Inc. USA). Human dermal fibroblasts (HDFs) were purchased from Cascade Biologics, Inc. (USA). HDFs were maintained in Medium 106 (Cascade Biologics, Inc. USA) supplemented with 10% FBS and low serum growth supplement (LSGS; Cascade Biologics, Inc. USA). The human colon adenocarcinoma cell lines HT-29 were purchased from the ATCC (Manassas, Va. USA). HT-29 were maintained in Dubecco's Modified Eagle Medium (DMEM; Gibco) supplemented with 10% FBS and 100 ng/ml penicillin and […] streptomycin (Life Technologies, Inc., Grand Island, N.Y., USA). For the proliferation assay of cell in log growth (G1), the cells were harvested at 60-80% of confluence. 100 μl of cell suspensions were dispensed onto a Falcon 96-well plates The densities were 6×10^3 cells/well in Medium 200 (for HUVECs), and 9×10^3 cells/well in Medium 106 (for HDFs), and 5×10^3 cells/well in DMEM (for HT-29) supplemented with 10% FBS. The cells were pre-incubated for 24 hours in an incubator (Humidified atmosphere, e.g., at 37° C., 5% CO2). 10 μl of toxicant of various concentrations were added into the culture medium of the plate. The cell cultures were incubated for 48 hours. 10 μl of the Cell Counting Kit-8 (CCK-8; DOJINDO) solution were added and the cell cultures incubated for 1˜4 hours in the incubator. The absorbance was measured at 450 nm, using a microplate reader with a reference wavelength at 600 nm or over.\nas §1, §2"}, "[6]": {"test_system": "HDF", "assay": "Cytotoxicity (IC50) on HDF", "type": "cell-based, human", "settings": "normal cells; for Cytotoxicity, IC50 HDF: Table 1; for IC50: Table 1, value in parentheses", "text": "as §3, §1\nas §2, with “To evaluate the effects of the extracts or the active components on cell growth rate of GBM cells, 5×10^3 exponentially growing cells were treated with different concentrations for 24, 48, or 72 h. The cytotoxicity of each test substance was determined as an IC50 value, which represents the drug concentration required to cause 50% inhibition. All experiments in this study were performed in triplicate.” left out"}, "[7]": {"test_system": "brain tumor cell lines", "assay": "Cytotoxicity (IC50) on brain tumor cell lines, pooled statement", "type": "cell-based", "settings": "GBM tumors not sensitive", "description": "as §2"}, "[8]": {"test_system": "G5T/VGH", "assay": "Cytotoxicity (IC50) on G5T/VGH", "type": "cell-based", "settings": "Homo sapiens; Table 2", "description": "as §1\nThe effects on cell viability after the treatments with different concentrations of the Angelicae sinensis extracts or the active components purified therefrom were evaluated by modified MTT assay in triplicate. Briefly, the cells (5×10^3) were incubated into 96-well plates containing 100 μl of a growth medium. The cells were permitted to adhere for 24 hours, then treated with 100 μl of the herbal extracts or the active components dissolved in the medium. The control contained DMSO of <0.02% (v/v). […] Absorbance at 550 nm of the solutions was measured with MRX Microtiter Plate Luminometer (DYNEX, USA). The absorbance of untreated cells was considered as 100%. […]"}, "[9]": {"test_system": "DBTRG-05MG", "assay": "Cytotoxicity (IC50) on DBTRG-05MG", "type": "cell-based", "settings": "Homo sapiens, read-out: Cytotoxicity (IC50) DBTRG-05MG", "description": "as §1\nas §2, with “All experiments in this study were performed in triplicate.” left out"}, "[10]": {"assay": "Cytotoxicity (IC50) on HUVEC", "type": "cell-based, human", "settings": "human", "text": "as §3, §1, §2"}},
  "data": [
    {"smiles": "CCC/C=C1\\OC(=O)c2ccccc21", "note": "[BP-Z form]", "values": [
      {"measurement": "Inhibition Tube Formation", "setting": "[1]", "result": 159.4, "unit": "µg/mL"},
      {"measurement": "Inhibition RT-PCR ETS-1", "setting": "[2]", "result": 159.4, "unit": "µg/mL"},
      {"measurement": "IC50", "setting": "[3]", "result": "> 106", "unit": "µM"},
      {"measurement": "Cytotoxicity, IC50 RG2", "setting": "[3]", "result": ">20", "unit": "µg/mL"},
      {"measurement": "Inhibition RT-PCR MMP-2", "setting": "[4]", "result": 531.3, "unit": "µg/mL"},
      {"measurement": "Cytotoxicity, IC50 HUVEC", "setting": "[5]", "result": ">100", "unit": "µg/mL"},
      {"measurement": "IC50", "setting": "[5]", "result": "> 532", "unit": "µM"},
      {"measurement": "Cytotoxicity, IC50 HDF", "setting": "[6]", "result": 65.25, "unit": "µg/mL"},
      {"measurement": "IC50", "setting": "[6]", "result": 347, "unit": "µM"}
    ]},
    {"smiles": "CCC/C=C1/OC(=O)c2ccccc21", "note": "[BP-E form]", "values": [
      {"measurement": "Inhibition RT-PCR ETS-1", "setting": "[2]", "result": 159.4, "unit": "µg/mL"},
      {"measurement": "IC50", "setting": "[3]", "result": "> 106", "unit": "µM"},
      {"measurement": "Cytotoxicity, IC50 RG2", "setting": "[3]", "result": ">20", "unit": "µg/mL"},
      {"measurement": "Cytotoxicity, IC50 HUVEC", "setting": "[5]", "result": ">100", "unit": "µg/mL"},
      {"measurement": "IC50", "setting": "[5]", "result": "> 532", "unit": "µM"},
      {"measurement": "Cytotoxicity, IC50 HDF", "setting": "[6]", "result": ">100", "unit": "µg/mL"},
      {"measurement": "IC50", "setting": "[6]", "result": "> 532", "unit": "µM"}
    ]},
    {"smiles": "O=NN(CCCl)C(=O)NCCCl", "note": "[carmustin, reference compound]", "values": [
      {"measurement": "IC50 GBM tumors", "setting": "[7]", "result": "> 100", "unit": "µg/mL"}
    ]},
    {"smiles": "CC(=O)O[C@H]1C(=O)[C@@]2(C)[C@H]([C@H](OC(=O)c3ccccc3)[C@]3(O)C[C@H](OC(=O)[C@H](O)[C@@H](NC(=O)c4ccccc4)c4ccccc4)C(C)=C1C3(C)C)[C@]1(OC(C)=O)CO[C@@H]1C[C@@H]2O", "note": "[Taxol, reference compound]", "values": [
      {"measurement": "IC50", "setting": "[8]", "result": "< 0.1", "unit": "µg/mL"},
      {"measurement": "IC50", "setting": "[9]", "result": "61 ± 3.3", "unit": "µg/mL"},
      {"measurement": "IC50", "setting": "[10]", "result": "< 0.1", "unit": "µg/mL"}
    ]}
  ]
}
